From patent publication EP0189142A2, “Arylalkoxyphenyl-allylic alcohols as agents for the treatment of hypersensitive ailments” (USV PHARMACEUTICAL CORPORATION, priority 1985, dated 1986)
pIC50: −log10 of the molar value.

Key:
Rat PMN 5-lipoxygenase = molecular target: T1, Rat PMN 5-lipoxygenase (Rattus norvegicus, UniProt P12527); assay: Protocol for detecting inhibitors of the lipoxygenase pathway (5-HETE formation in rat neutrophils); type: cell-based; conditions: suspension of rat neutrophils, 3 minutes at 30°C with [14C]-arachidonic acid and Calcium Ionophore A23187; net 5-HETE produced; read-out: Rat PMN 5-lipoxygenase inhibition (I50)
T1 construct: endogenous in cells; host or cells: rat neutrophils (PMN)
T1 sequence (P12527 1-673): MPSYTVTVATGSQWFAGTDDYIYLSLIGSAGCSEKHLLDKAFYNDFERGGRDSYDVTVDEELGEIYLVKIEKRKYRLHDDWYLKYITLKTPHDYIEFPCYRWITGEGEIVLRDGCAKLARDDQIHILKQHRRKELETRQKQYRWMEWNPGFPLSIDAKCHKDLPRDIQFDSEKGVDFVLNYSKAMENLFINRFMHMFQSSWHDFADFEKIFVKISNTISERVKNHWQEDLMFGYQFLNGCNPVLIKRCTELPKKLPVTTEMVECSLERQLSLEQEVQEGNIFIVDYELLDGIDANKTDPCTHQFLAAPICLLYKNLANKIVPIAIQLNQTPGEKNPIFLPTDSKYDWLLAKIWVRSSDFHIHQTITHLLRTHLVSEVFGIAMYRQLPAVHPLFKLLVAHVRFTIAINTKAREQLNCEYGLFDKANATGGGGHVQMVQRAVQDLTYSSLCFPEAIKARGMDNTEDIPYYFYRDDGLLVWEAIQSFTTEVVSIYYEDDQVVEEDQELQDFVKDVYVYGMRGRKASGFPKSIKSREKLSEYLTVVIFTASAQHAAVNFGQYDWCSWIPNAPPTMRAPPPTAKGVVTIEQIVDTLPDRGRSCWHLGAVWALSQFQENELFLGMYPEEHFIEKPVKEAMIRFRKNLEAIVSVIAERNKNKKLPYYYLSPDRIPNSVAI
Experimental: The following protocol describes an assay to detect inhibitors of the lipoxygenase pathway. Such inhibitors are believed to be capable of modulating the biosynthesis of the leukotrienes, a property believed to be useful in treating asthma and inflammatory disease states.
Protocol for Detecting Inhibitors of the Lipoxygenase Pathway
A suspension of rat neutrophils in buffer is incubated for 3 minutes at 30°C with [^14]-arachidonic acid (AA) and Calcium Ionophore A23'187. Citric acid (2M) is used to quench the reaction. Following the addition of a trace amount of (^3H)-5-HETE together with an excess of unlabeled 5-HETE to each tube, the mixture is extracted with chloroform/methanol. The organic layer is washed with dilute acid and an aliquot is transferred to glass tubes and dried. The residue is dissolved in a small volume of chloroform and an aliquot is spotted on silica gel TLC sheets, which are developed with an ethyl acetate/isooctane/water/acetic acid solvent system. The 5-HETE spots are visualized with iodine, cut out and placed in scintillation vials for counting. After adjusting for the extraction efficiency, the amount (pmole) of [^14C]-5-HETE in each of the tubes is quantitated by substracting the net pmoles of 5-HETE in the tubes containing buffer alone (blank) from the pmoles of 5-HETE in the tubes containing […]. The ability of the test compounds to modulate the activity of this enzyme is determined by a decrease or increase in the net amount of 5-HETE produced.

Phospholipase A2 (PLA2) = molecular target: T2, Phospholipase A2 (PLA2) (Rattus norvegicus, UniProt P14423); assay: In vitro assay for inhibitors of Phospholipase A2 (PLA2); type: biochemical; conditions: PLA2 from aggregated purified rat platelets; 14C-phosphatidylcholine substrate; pH 7.2, 37°C, 30 minutes; read-out: (PLA2) Phospholipase A2 inhibition (I50)
T2 construct: obtained by aggregation of purified rat platelets; from tissue; host or cells: rat platelets (material obtained on aggregation)
T2 sequence (P14423 22-146): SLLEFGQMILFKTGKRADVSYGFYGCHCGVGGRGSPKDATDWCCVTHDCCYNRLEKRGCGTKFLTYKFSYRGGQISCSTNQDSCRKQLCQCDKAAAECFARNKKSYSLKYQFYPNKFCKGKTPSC
Text: (§1) Two assays have been developed to test the ability of the invented compounds on the activity of the phospholipases. In one protocol, a procedure is described for testing the inhibitory effects of these compounds on Phospholipase C (PLC), while the other protocol describes a means for testing the inhibitory effect of these compounds on Phospholipase A2 (P^LA2).
Protocol for In Vitro Assay for Inhibitors of Phospholipase A2 Assayed at oH 7.0 (PLA2)
The PLA2 employed in this screen is obtained by aggregation of purified rat platelets. In the enzyme assay phosphatidylcholine having ^14C-labeled palmitate residues at Rl and R2 is employed as substrate. PLA2 acts by cleaving the R2 fatty acid ester bond yielding free fatty acid and lysophosphatidyl choline as follows: [drawing 22]
Following completion of the reaction, the assay medium is acidified and extracted with hexane, which takes up unreacted substrate and free fatty acid product. The hexane extract is passed over a short silica gel column which retains 99% of the phosphatidyl choline. The ^14C-labeled palmitic acid is not retained (90% recovery in eluate) and is collected directly in scintillation counting vials. The released palmitic acid is conveniently quantitated by liquid scintillation spectrometry.
The compounds were tested at 100 uM in a buffer containing 0.3 mM unlabeled phosphatidylcholine (PC), 20-30,000 cpm of ^14C [PC], 100 mM NaCl, 1 mM CaCl2 and 50 mM Tris-HCL adjusted to pH 7.2 with 1 N NaOH. […] The reaction was initiated by addition of the enzyme and it was terminated 30 minutes later by the addition of 100 ml of 1 N HCL.
Following acidification, the complex was extracted with 2 ml of 2-propanol and 2 ml of hexane, vortexed, and allowed to stand until the phases separated. Free fatty acids (FFA) and some unreacted substrate were taken up in the isopropanol-saturated hexane. The hexane phase of the extraction mixture was transferred to a short silica gel column which retained unreacted PC but not the FFA. The column effluent was collected directly in scintillation vials. The columns were washed once with an additional 2 ml of hexane. The radiolabeled FFA were ^quantitated by liquid scintillation spectrometry.

Phospholipase C (PLC) = assay: In vitro assay for inhibitors of Phospholipase C (PLC); type: biochemical; conditions: PLC from aggregated purified rat platelets (CaCl2, ADP); 3H-phosphatidylinositol substrate; pH 9.0, 37°C, 10 minutes; read-out: (PLC) Phospholipase C inhibition (I50)
Text: as §1
Protocol for In Vitro Assay for Inhibitors of
The PLC employed in this screen is obtained by aggregation of purified rat platelets in the presence of CaCl2 and ADP. In the enzyme assay, phosphatidylinositol having ^3H-labeled arachidonate residues at R2 is employed as substrate. PLC acts by cleaving the phosphate ester bond yielding diglyceride as follows: [drawing 21] ^3H-Phosphatidylinosit-tol ^3H-diglyceride Inositol (cont.)
Following completion of the reaction, the assay medium is acidified and extracted with hexane which takes up unreacted substrate and diglvceride. The hexane extract is passed over a short silica gel column which retains 99% of the phosphatidylinositol. […] The diglyceride is conveniently quantitated by liquid scintillation spectrometry. […]
Following acidification, the samples were extracted with 2 ml of isopropyl alcohol and 2 ml of hexane, vortexed and allowed to stand until the phrases separate. […] The radiolabeled diglycerides were quantitated by liquid scintillation spectrometry.

Row | pIC50 (Rat PMN 5-lipoxygenase) | SMILES | pIC50 (Phospholipase A2 (PLA2)) | pIC50 (Phospholipase C (PLC))
1 | 5.00 | CCCCCC(O)C=Cc1ccc(OCc2ccccc2)cc1OCc1ccccc1 (stereo not drawn) [Compound 23] | – | –
2 | 5.70 | CC(O)C=Cc1ccc(OCc2ccccc2)c(OCc2ccccc2)c1 (stereo not drawn) [Compound 28] | – | –
3 | 5.64 | CC(C)(C)C(O)C=Cc1ccc(OCc2ccccc2)c(OCc2ccccc2)c1 (stereo not drawn) [Compound 29] | – | –
4 | 5.15 | CCCCCC(O)C=CC=Cc1ccc(OCc2ccccc2)cc1 (stereo not drawn) [Compound 32] | – | –
5 | 5.35 | CC(C)(C)C(O)C=CC=Cc1ccc(OCc2ccccc2)cc1 (stereo not drawn) [Compound 34] | – | –
6 | – | CN(C)CCC(O)C=Cc1ccc(OCc2ccccc2)cc1 (stereo not drawn) [Compound 37] | – | 4.62
7 | – | CC1CCCC(=Cc2ccc(OCc3ccccc3)cc2)C1O (stereo not drawn) [Compound 40] | 3.77 | –
8 | 5.85 | OCC=Cc1ccc(OCc2ccccc2)cc1OCc1ccccc1 [Compound 42] | – | –

Row | SMILES | pIC50 (Rat PMN 5-lipoxygenase) | pIC50 (Phospholipase A2 (PLA2)) | pIC50 (Phospholipase C (PLC))
9 | CC(O)C=Cc1ccc(OCc2ccccc2)cc1 [Compound 21, 4-(D-BenzyloxyDhenyl)-3-buten-2-ol] | 5.82 | 3.92 | –
10 | CC(O)C=Cc1ccc(OCc2ccccc2)cc1OCc1ccccc1 (stereo not drawn) [Compound 22] | 6.00 | 4.05 | –
11 | CC(C)(C)CC(O)C=Cc1ccc(OCc2ccccc2)cc1OCc1ccccc1 (stereo not drawn) [Compound 24] | 6.52 | 4.00 | –
12 | CC(C)(C)C(O)C=Cc1ccc(OCc2ccccc2)cc1OCc1ccccc1 (stereo not drawn) [Compound 25] | 5.96 | 4.10 | –
13 | CC(O)C=Cc1ccc(OC(c2ccccc2)c2ccccc2)cc1 (stereo not drawn) [Compound 39] | 5.46 | 4.51 | –
